Laboratory results as given in patent US20070128217A1 (priority 2003, published 2007).

Columns and labels:
[1] = test system: recombinant human anti-SARS-CoV antibody 03-018; assay type: binding; parameters: Binding of antibody 03-018 to linear peptides of the N protein of SARS-CoV Urbani / Binding of antibody 03-018 to looped/cyclic peptides of the N protein of SARS-CoV Urbani: unit not given here
[2] = test system: antibodies in sera from SARS patients (sera 1a, 1b, 2, 6, 37, 62, London, SARS-yellow, SARS-green); assay type: binding, human; parameters: Binding of serum 6 to linear peptides of protein X1 of SARS-CoV Urbani / Binding of serum 37 to linear peptides of protein X1 of SARS-CoV Urbani / Binding of serum 6 to looped/cyclic peptide (PEPSCAN-ELISA) / Binding of serum 37 to looped/cyclic peptide (PEPSCAN-ELISA) / Binding of serum 37 to looped/cyclic peptides of protein X1 of SARS-CoV Urbani / Binding of serum 6 to linear peptides of protein X2 / Binding of serum 37 to linear peptides of protein X2 / Binding of serum 37 to looped/cyclic peptides of protein X2 of SARS-CoV Urbani / Binding of serum 6 to linear peptides of protein M of SARS-CoV Urbani / Binding of serum 37 to linear peptides of protein M of SARS-CoV Urbani / Binding of serum 6 to looped/cyclic peptides of protein M of SARS-CoV Urbani / Binding of serum 37 to looped/cyclic peptides of protein M of SARS-CoV Urbani / Binding of serum 6 to linear peptides of protein X3 of SARS-CoV Urbani / Binding of serum 37 to linear peptides of protein X3 of SARS-CoV Urbani / Binding of serum 37 to looped/cyclic peptides of protein X3 of SARS-CoV Urbani / Binding of serum 6 to linear peptides of protein X4 of SARS-CoV Urbani / Binding of serum 37 to linear peptides of protein X4 of SARS-CoV Urbani / Binding of serum 37 to looped/cyclic peptides of protein X4 of SARS-CoV Urbani / Binding of serum 6 to linear peptides of protein X5 of SARS-CoV Urbani / Binding of serum 37 to linear peptides of protein X5 of SARS-CoV Urbani / Binding of serum 37 to looped/cyclic peptides of protein X5 of SARS-CoV Urbani / Binding of serum 6 to linear peptides of protein N of SARS-CoV Urbani / Binding of serum 37 to linear peptides of protein N of SARS-CoV Urbani / Binding of serum 6 to linear peptide (PEPSCAN-ELISA) / Binding of serum 1a to looped/cyclic peptides of protein N of SARS-CoV Urbani / Binding of serum 1b to looped/cyclic peptides of protein N of SARS-CoV Urbani / Binding of serum 2 to looped/cyclic peptides of protein N of SARS-CoV Urbani / Binding of serum 6 to looped/cyclic peptides of protein N of SARS-CoV Urbani / Binding of serum 37 to looped/cyclic peptides of protein N of SARS-CoV Urbani / Binding of serum 62 to looped/cyclic peptides of protein N of SARS-CoV Urbani / Binding of serum London to looped/cyclic peptides of protein N of SARS-CoV Urbani / Binding of serum SARS-green to looped/cyclic peptides of protein N of SARS-CoV Urbani: unit not given here
[3] = test system: control sera (pooled serum of ten healthy LUMC hospital workers; commercial negative donor pooled serum from the Dutch bloodbank); assay type: binding, human; parameters: Binding of Control serum LUMC to linear peptides / Binding of Control serum Blood-bank to linear peptides / Binding of Control serum LUMC to looped peptides / Binding of Control Serum Blood-Bank to Looped peptides / Binding of Control serum LUMC to linear peptides of the protein M of SARS-CoV Urbani / Binding of Control serum Blood-bank to linear peptides of the protein M of SARS-CoV Urbani / Binding of Control serum LUMC to looped peptides of the protein M of SARS-CoV Urbani / Binding of Control Serum Blood-Bank to Looped peptides of the protein M of SARS-CoV Urbani: unit not given here
[4] = test system: rabbit serum obtained by immunizing a rabbit with the SARS-CoV strain Frankfurt 1; assay type: binding; parameters: Binding of a rabbit serum to linear peptides / Binding of a rabbit serum to looped peptides / Rabbit serum linear peptides / Rabbit serum looped peptides / Binding of a rabbit serum to linear peptides of protein N of SARS-CoV Urbani (Rabbit serum linear peptides) / Binding of a rabbit serum to looped/cyclic peptides of protein N of SARS-CoV Urbani (Rabbit serum looped peptides): unit not given here

Sequence | Binding of antibody 03-018 to linear peptides of the N protein of SARS-CoV Urbani [1] | Binding of antibody 03-018 to looped/cyclic peptides of the N protein of SARS-CoV Urbani [1] | Binding of serum 1a to linear peptides of protein N of SARS-CoV Urbani [2] | Binding of serum 1a to looped/cyclic peptides of protein N of SARS-CoV Urbani [2] | Binding of serum 1b to linear peptides of protein N of SARS-CoV Urbani [2] | Binding of serum 1b to looped/cyclic peptides of protein N of SARS-CoV Urbani [2] | Binding of serum 2 to linear peptides of protein N of SARS-CoV Urbani [2] | Binding of serum 2 to looped/cyclic peptides of protein N of SARS-CoV Urbani [2] | Binding of serum 6 to looped/cyclic peptides of protein N of SARS-CoV Urbani [2] | Binding of serum 37 to looped/cyclic peptides of protein N of SARS-CoV Urbani [2] | Binding of serum 62 to looped/cyclic peptides of protein N of SARS-CoV Urbani [2] | Binding of serum London to looped/cyclic peptides of protein N of SARS-CoV Urbani [2] | Binding of serum SARS-green to looped/cyclic peptides of protein N of SARS-CoV Urbani [2] | Binding of serum SARS-yellow to looped/cyclic peptides of protein N of SARS-CoV Urbani [2] | Binding of Control Serum Blood-Bank to Looped peptides [3] | Binding of Control serum Blood-bank to linear peptides [3] | Binding of Control serum LUMC to linear peptides [3] | Binding of Control serum LUMC to looped peptides [3] | Binding of a rabbit serum to linear peptides of protein N of SARS-CoV Urbani (Rabbit serum linear peptides) [4] | Binding of a rabbit serum to looped/cyclic peptides of protein N of SARS-CoV Urbani (Rabbit serum looped peptides) [4] | other results
GRNGARPKQRRPQGL | 0.1 | 0.2 | 0.2 | 0.2 | 0.1 | 0.1 | 0.2 | 0.2 | 0.2 | 0.4 | 0.3 | 0.3 | 0.2 | 0.3 | 0.5 | 0.7 | 0.6 | 0.5 | 0.2 | 0.7 | Binding of serum 6 to linear peptides of protein N of SARS-CoV Urbani [2]: 0.2; Binding of serum 37 to linear peptides of protein N of SARS-CoV Urbani [2]: 0.7; Binding of serum 62 to linear peptides of protein N of SARS-CoV Urbani [2]: 0.6; Binding of serum London to linear peptides of protein N of SARS-CoV Urbani [2]: 0.4; Binding of serum SARS-green to linear peptides of protein N of SARS-CoV Urbani [2]: 0.4; Binding of serum SARS-yellow to linear peptides of protein N of SARS-CoV Urbani [2]: 0.4
GRRGPEQTQGNFGDQ | 0.1 | 0.2 |  | 0.4 |  | 0.3 |  | 0.4 | 0.2 | 0.5 | 0.6 | 0.5 | 0.4 | 0.5 | 0.6 | 0.6 | 0.6 | 0.6 | 0.1 | 0.2 | Recognition of the peptide by sera of SARS-CoV infected individuals, and form (linear, looped/cyclic) in which it is recognized [2]: recognized in linear form
GSRGGSQASSRSSSR | 0.1 | 0.2 |  | 0.6 |  | 0.8 |  | 0.7 | 0.5 | 0.9 | 0.7 | 0.7 | 1.2 | 1.6 | 1.1 | 0.7 | 0.7 | 0.7 | 0.3 | 0.6 | Binding of serum 1a to linear peptide (PEPSCAN-ELISA) [2]: 0.3; Binding of serum 1b to linear peptide (PEPSCAN-ELISA) [2]: 0.1; Binding of serum 2 to linear peptide (PEPSCAN-ELISA) [2]: 0.3; Binding of serum 6 to linear peptide (PEPSCAN-ELISA) [2]: 0.4; Binding of serum 37 to linear peptide (PEPSCAN-ELISA) [2]: 0.7; Binding of serum 62 to linear peptide (PEPSCAN-ELISA) [2]: 0.8; Binding of serum London to linear peptide (PEPSCAN-ELISA) [2]: 0.5; Binding of serum SARS-green to linear peptide (PEPSCAN-ELISA) [2]: 0.2; Binding of serum SARS-yellow to linear peptide (PEPSCAN-ELISA) [2]: 0.8
GTDYKHWPQIAQFAP | 0.1 | 0.2 | 0.3 | 0.5 | 0.1 | 0.3 | 0.2 | 0.5 | 0.3 | 0.7 | 0.7 | 0.5 |  | 0.7 |  |  |  |  | 0.2 | 0.5 | Binding of serum 6 to linear peptides of protein N of SARS-CoV Urbani [2]: 0.2; Binding of serum 37 to linear peptides of protein N of SARS-CoV Urbani [2]: 0.7; Binding of serum 62 to linear peptides of protein N of SARS-CoV Urbani [2]: 0.8; Binding of serum London to linear peptides of protein N of SARS-CoV Urbani [2]: 0.6; Binding of serum SARS-green to linear peptides of protein N of SARS-CoV Urbani [2]: 0.6; Binding of serum SARS-yellow to linear peptides of protein N of SARS-CoV Urbani [2]: 0.7; Control Serum Blood-Bank Looped peptides [3]: 0.8; Control serum Blood-bank linear peptides [3]: 0.8; Control serum LUMC linear peptides [3]: 0.6; Control serum LUMC looped peptides [3]: 0.7
